Data published in BindingDB's records for doi:10.1021/jm00177a018 (1980).

Target: Aldehyde oxidase (Oryctolagus cuniculus)
Test: Tested for its ability to inhibit rabbit liver aldehyde oxidase catalyzed oxidation of N-methyl-nicotinamide (NMN)

| SMILES | Ki |
| --- | --- |
| CCOC(CCP(=O)(OCC)OCC)OCC | 200 µM |
| CCOP(=O)(CC=O)OCC | 300 µM |
| CCOP(=O)(CCC=O)c1ccccc1 (stereo not drawn) | 100 µM |
